Experimental data from publication PMC6146907, “Structural Determinants of the Stability of Enzyme‐Responsive Polyion Complex Nanoparticles Targeting Pseudomonas aeruginosa’s Elastase” (Chemnanomat, 2018).
Peptide text beside a SMILES is read from it.

Biological target: Pseudomonas aeruginosa Elastase (LasB) (Pseudomonas aeruginosa, UniProt P14756)
Details: fluorescamine assay; 125 μL 1 mM peptide + 125 μL buffer with 15 μg LasB; 25 mM Na2B4O7 pH 8.0, 10 mM CaCl2; 37 °C, 4 h; fluorescence ex 355/em 460 nm; normalised to P5 = 100%; n=3
Method: P5’s sequence should be formed following LasB‐mediated hydrolysis of the −GLAE− sequence, present in all the peptides reported.
One‐way ANOVA, followed by Tukey's test (CI=95%,) was used to test for significance. Statistical significance was determined ‘n/s’=not significant, *** p<0.001.
Stock solutions of peptide (1 mM) or succinyl casein (0.5 mg/mL) were prepared in 25 mM Na2B4O7 buffer at pH 8.0 with 10 mM CaCl2 and 10% v/v DMSO. 125 μL of these substrate solutions were added to a 96‐well black‐walled microplate and mixed with 125 μL of the same buffer without DMSO, containing 15 μg of enzyme (LasB or HLE). Solutions of enzymes and substrates alone were prepared as controls. Every sample was prepared in triplicate. The microplate was incubated at 37 °C for 4 hours under orbital shaking. After 4 hours, 50 μL of 0.1 M EDTA in water at pH 8.0 were added to each well to quench all enzymatic activity. Then, each sample was mixed in a 1 : 1 volume ratio with a 1 mM solution of fluorescamine19 in methanol. […] After this time, fluorescence was measured exciting at 355 nm and reading the emission at 460±10 nm. […]
fluorescence is related to the elastase-mediated hydrolysis of the peptides. […]
of the elastases and the fluorescence observed is represented by black bars . […]
peptides,[4] was incubated in the absence of elastase and the fluorescence obtained was associated

Chain of Pseudomonas aeruginosa Elastase (LasB) (P14756 198-498): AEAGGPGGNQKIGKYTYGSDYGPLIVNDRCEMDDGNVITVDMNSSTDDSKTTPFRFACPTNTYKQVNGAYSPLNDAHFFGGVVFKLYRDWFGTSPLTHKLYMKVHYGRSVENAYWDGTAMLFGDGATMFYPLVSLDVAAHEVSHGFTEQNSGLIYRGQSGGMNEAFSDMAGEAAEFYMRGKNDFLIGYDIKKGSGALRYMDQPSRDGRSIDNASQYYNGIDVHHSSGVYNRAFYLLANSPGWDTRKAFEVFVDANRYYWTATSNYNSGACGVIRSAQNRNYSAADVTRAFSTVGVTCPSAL

| SMILES | susceptibility to LasB hydrolysis (relative amine content) |
| --- | --- |
| CC(=O)N[C@@H](CS)C(=O)N[C@@H](CCC(=O)O)C(=O)N[C@@H](CCC(=O)O)C(=O)NCC(=O)N[C@@H](CC(C)C)C(=O)N[C@@H](C)C(=O)N[C@@H](CCC(=O)O)C(=O)N[C@@H](CCC(=O)O)C(=O)N[C@@H](CS)C(=O)O [P2SH] (Ac-CEEGLAEEC-OH) | least active |
| CC(=O)N[C@@H](CS)C(=O)N[C@@H](CCC(=O)O)C(=O)N[C@@H](CCC(=O)O)C(=O)N[C@@H](CCC(=O)O)C(=O)NCC(=O)N[C@@H](CC(C)C)C(=O)N[C@@H](C)C(=O)N[C@@H](CCC(=O)O)C(=O)N[C@@H](CCC(=O)O)C(=O)N[C@@H](CCC(=O)O)C(=O)N[C@@H](CS)C(=O)O [P3SH] (Ac-CEEEGLAEEEC-OH) | highest susceptibility |
